Experimental data published in ChEMBL document CHEMBL2169765, “Structural basis for the accommodation of bis- and tris-aromatic derivatives in vitamin D nuclear receptor” (J Med Chem, 2012).

Experiments:
Format in all cases: cell-based
Vitamin D3 receptor [1] = molecular target: T1, Vitamin D3 receptor (Homo sapiens, UniProt P11473); experiment: Transactivation of GAL4-fused VDR ligand binding domain expressed in human HeLa cells after 16 hrs by luciferase reporter gene assay
T1 sequence (P11473 whole entry): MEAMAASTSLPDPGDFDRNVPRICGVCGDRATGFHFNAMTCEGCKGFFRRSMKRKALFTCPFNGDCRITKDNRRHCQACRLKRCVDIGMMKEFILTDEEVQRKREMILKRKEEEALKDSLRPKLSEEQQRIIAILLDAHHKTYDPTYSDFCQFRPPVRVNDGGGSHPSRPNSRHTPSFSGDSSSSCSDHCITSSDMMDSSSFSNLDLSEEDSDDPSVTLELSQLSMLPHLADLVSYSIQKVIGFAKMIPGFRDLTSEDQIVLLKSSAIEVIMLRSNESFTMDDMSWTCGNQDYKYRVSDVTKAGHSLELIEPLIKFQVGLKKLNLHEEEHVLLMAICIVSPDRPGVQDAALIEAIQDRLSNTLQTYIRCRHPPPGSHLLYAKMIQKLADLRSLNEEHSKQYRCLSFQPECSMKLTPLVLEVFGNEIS

Vitamin D3 receptor [2] = molecular target: T1, Vitamin D3 receptor; experiment: Transactivation of full length human VDR expressed in human HeLa cells assessed as increase in CYP24 transcription after 18 hrs by luciferase reporter gene assay
[3] = molecular target: T2, Vitamin D3 receptor (Homo sapiens) (UniProt P11473); experiment: Ratio of calcitriol EC50 to compound EC50 for full length human VDR expressed in human HeLa cells
T2 sequence (whole entry): T1 sequence (P11473 whole entry)

Compound	EC50 (Vitamin D3 receptor [1])	EC50 (Vitamin D3 receptor [2])	Ratio EC50 [3]
CC/C(=C\C=C\C(O)(C(F)(F)F)C(F)(F)F)c1cccc(OCc2ccc(CO)c(CO)c2)c1	5 nM	–	–
CC/C(=C\C=C\C(O)(C(F)(F)F)C(F)(F)F)c1cccc(CCc2ccc(CO)c(CO)c2)c1	1.7 nM	2.8 nM	–
CCCc1cc(C(O)(CC)CC)ccc1-c1cc(CCc2ccc(CO)c(CO)c2)ccc1C	–	0.5 nM	4

Further compounds by falling EC50 (Vitamin D3 receptor [2]), results first:

EC50 (Vitamin D3 receptor [1])	EC50 (Vitamin D3 receptor [2])	Ratio EC50 [3]	Compound
–	49 nM	–	CC/C(=C\C=C\C(O)(CC)CC)c1cccc(OCc2ccc(CO)c(CO)c2)c1
–	2.2 nM	–	CCCc1cc(C(O)(CC)CC)ccc1-c1cc(OCc2ccc(CO)c(CO)c2)ccc1CC
